Data reported in PubChem BioAssay (NCI).
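Five concentrations, 48 hours, 96-well plates. The concentration for 50% growth inhibition is given as GI50. TGI marks complete inhibition of growth.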

How the values were obtained:
Assay in all cases: NCI tumour cell line growth inhibition, 48 h
CAKI-1 renal = system: CAKI-1 renal
KM12 colon = system: KM12 colon
UO-31 renal = system: UO-31 renal
SN12C renal = system: SN12C renal
HOP-62 NSCLC = system: HOP-62 NSCLC
SW-620 colon = system: SW-620 colon
T-47D breast = system: T-47D breast
HCT-15 colon = system: HCT-15 colon
NCI-H460 lung = system: NCI-H460 lung
PC-3 prostate = system: PC-3 prostate

Row | SMILES | TGI (CAKI-1 renal) [µM] | TGI (KM12 colon) [µM] | TGI (UO-31 renal) [µM] | TGI (SN12C renal) [µM] | TGI (HOP-62 NSCLC) [µM] | TGI (SW-620 colon) [µM] | TGI (T-47D breast) [µM] | TGI (HCT-15 colon) [µM] | TGI (NCI-H460 lung) [µM] | TGI (PC-3 prostate) [µM] | GI50 (UO-31 renal) [µM] | GI50 (SN12C renal) [µM] | GI50 (SW-620 colon) [µM] | GI50 (CAKI-1 renal) [µM] | GI50 (T-47D breast) [µM] | GI50 (HCT-15 colon) [µM] | GI50 (KM12 colon) [µM] | GI50 (NCI-H460 lung) [µM] | GI50 (PC-3 prostate) [µM] | GI50 (HOP-62 NSCLC) [µM]
1 | COc1ccc2nc3ccccc3c(NCCN(CCCl)CCCl)c2c1 | 0.937 | 4.37 | 4.39 | 4.21 | 2.97 | 2.51 | – | – | – | – | – | – | – | – | – | – | – | – | – | –
2 | CC(C)C1=CC2=C(C(=O)C1=O)C13CCCC(C)(C)C1CC2OC3=O (configuration not stated) | 44.1 | > 100 | 40.8 | 43.6 | – | 35.2 | 48.4 | 30.7 | 71.9 | 63.2 | – | – | – | – | – | – | – | – | – | –
3 | N#CCCN(c1ccc(C=O)cc1)S(=O)(=O)c1ccccc1 | > 100 | > 100 | > 100 | > 100 | > 100 | > 100 | – | > 100 | > 100 | – | – | – | – | – | – | – | – | – | – | –
4 | CSC1=Nc2ccccc2N=C(c2ccccc2)C1 | > 100 | > 100 | > 100 | > 100 | > 100 | 32.6 | – | > 100 | 46.8 | – | – | – | – | – | – | – | – | – | – | –
5 | O=C(CC(=O)c1cccc([N+](=O)[O-])c1)C(=O)Nc1ccccc1 | > 100 | > 100 | > 100 | > 100 | > 100 | > 100 | – | > 100 | > 100 | – | – | – | – | – | – | – | – | – | – | –
6 | CCN(CC)C(=O)CC12CCCCC1=Nc1ccccc12 (configuration not stated) | > 100 | > 100 | – | – | > 100 | > 100 | – | > 100 | > 100 | – | – | – | – | – | – | – | – | – | – | –
7 | CC[As](CC)SCC1OC(OC(C)=O)C(OC(C)=O)C(OC(C)=O)C1OC(C)=O (configuration not stated) | 10.4 | 34.7 | 29.8 | 28.4 | 38.3 | 16.3 | – | 26.4 | 31.3 | – | – | – | – | – | – | – | – | – | – | –
8 | O=C(CC1(O)C(=O)Nc2ccccc21)c1ccccc1O (configuration not stated) | > 100 | – | > 100 | > 100 | > 100 | > 100 | – | > 100 | > 100 | – | – | – | – | – | – | – | – | – | – | –
9 | CN(C)c1ccc(/C=c2/c3cc(O)ccc3n3c2cc(-c2ccccc2)[n+]3C)cc1 | > 100 | 2.29 | 31.7 | – | 4.37 | – | – | > 100 | – | 2.25 | 4.45 | 0.187 | 1.77 | – | – | – | – | – | – | –
10 | CC(=O)O[C@@H]1CC[C@@]2(C)C(=O)C34C[C@@]5(C)C([C@@H](C)CCCC(C)C)CCC5(C)[C@](O)(O3)C(=O)[C@H]4C2C1(C)C (some centres not stated) | 29.8 | 24 | 26 | 26.7 | 33.1 | 24.5 | – | 26.5 | 18.5 | – | – | – | – | – | – | – | – | – | – | –
11 | Nc1c(C(=O)Nc2cccc(C(F)(F)F)c2)sc2nc3c(cc12)CCCCCC3 | 10.2 | 23.5 | 8.57 | 13 | – | 21.2 | 6.2 | 15.3 | 7.52 | 32.7 | 2.18 | 3.15 | 3.75 | 2.49 | 1.35 | 2.63 | 4.08 | 2.32 | 4.31 | –
12 | Clc1ccccc1C1SCc2nc3ccccc3n21 (configuration not stated) | > 100 | > 100 | – | 51.8 | 64.6 | > 100 | – | > 100 | > 100 | – | – | – | – | – | – | – | – | – | – | –
13 | CC1=CC[C@@H](C(C)(C)O)C[C@@H]1O | – | > 5000 | > 5000 | > 5000 | > 5000 | > 5000 | – | > 5000 | > 5000 | – | – | – | – | – | – | – | – | – | – | –
14 | CC1C(O)=C(O)c2ccccc2N1O (configuration not stated) | > 100 | > 100 | > 100 | > 100 | > 100 | > 100 | – | > 100 | > 100 | – | – | – | – | – | – | – | – | – | – | –
15 | COC(=O)C1=CC(=O)[C@@H]2CCCC[C@H]12 | > 100 | > 100 | > 100 | > 100 | > 100 | > 100 | – | > 100 | > 100 | – | – | – | – | – | – | – | – | – | – | –
16 | N#Cc1cccc(C2C(=O)c3ccc(C(=O)c4ccc5c(c4)C(=O)N(c4ccc(Oc6ccc(N7C(=O)c8ccc(C(=O)c9ccc%10c(c9)C(=O)N(c9cccc(C#N)c9)C%10=O)cc8C7=O)cc6)cc4)C5=O)cc3C2=O)c1 (configuration not stated) | – | > 100 | > 100 | > 100 | > 100 | > 100 | – | > 100 | > 100 | – | – | – | – | – | – | – | – | – | – | –
17 | N#C/C(=C\c1ccc[nH]1)C(=O)c1ccccc1 | > 100 | > 100 | > 100 | > 100 | > 100 | > 100 | – | > 100 | > 100 | – | – | – | – | – | – | – | – | – | – | –
18 | Fc1ccc(N=C2C=CC(=Nc3ccc(F)cc3)c3ccccc32)cc1 | – | – | > 100 | > 100 | > 100 | > 100 | – | > 100 | > 100 | – | – | – | – | – | – | – | – | – | – | –
19 | O=C1c2ccc3c4c(ccc(c24)C(=O)N1CCNCc1ccccc1)C(=O)N(CCNCc1ccccc1)C3=O | 4.91 | 3.31 | – | 3.05 | 4.57 | 1.37 | 3.57 | 2.92 | 4.26 | – | – | 1.63 | 0.306 | 1.88 | 1.64 | 1.43 | 1.69 | 1.8 | – | 1.91
